# From patent publication US20220332699A1 (SAGE THERAPEUTICS, INC., priority 2019, published 2022)
# Biological target: CYP46A1 (Homo sapiens, UniProt Q9Y6A2)
# Experiment: CYP46A1 Enzyme Assay 2 (testosterone substrate, HPLC-MS)
# Type: biochemical
# Conditions: read-out: IC50 (CYP46A1 inhibitory activity)
# Description: Briefly, in a 384-well plate format, 10 μL per well of an enzyme-substrate mixture of CYP46A1 (5 μM final concentration) and Testosterone ([…] final concentration) were dispensed to wells containing test compound. For CYP46A1 titration, 5 μL per well of serially diluted CYP46A1 (concentrations including 10 μM, 5 μM, and 2.5 μM) and Testosterone (concentration of […]) were dispensed. For Testosterone titration, 5 μL per well of serially diluted Testosterone (concentrations including 10 μM, 5 μM, and 2.5 μM) and CYP46A1 (concentration of 5 μM) were dispensed. The plates were centrifuged at 1000 rpm for 30 seconds, and then sealed and incubated at 37° C. for 30 minutes. The plate was removed from the incubator, and then 10 μL per well of NADPH-generating system were dispensed to initiate the reaction. The plates were incubated at 37° C. for 15 minutes, added with 80 μL per well of 100% methanol consisting 1 ng/ml diclofenac as internal standard, and then transferred for HPLC-MS.
# CYP46A1, sequence (Q9Y6A2 whole entry): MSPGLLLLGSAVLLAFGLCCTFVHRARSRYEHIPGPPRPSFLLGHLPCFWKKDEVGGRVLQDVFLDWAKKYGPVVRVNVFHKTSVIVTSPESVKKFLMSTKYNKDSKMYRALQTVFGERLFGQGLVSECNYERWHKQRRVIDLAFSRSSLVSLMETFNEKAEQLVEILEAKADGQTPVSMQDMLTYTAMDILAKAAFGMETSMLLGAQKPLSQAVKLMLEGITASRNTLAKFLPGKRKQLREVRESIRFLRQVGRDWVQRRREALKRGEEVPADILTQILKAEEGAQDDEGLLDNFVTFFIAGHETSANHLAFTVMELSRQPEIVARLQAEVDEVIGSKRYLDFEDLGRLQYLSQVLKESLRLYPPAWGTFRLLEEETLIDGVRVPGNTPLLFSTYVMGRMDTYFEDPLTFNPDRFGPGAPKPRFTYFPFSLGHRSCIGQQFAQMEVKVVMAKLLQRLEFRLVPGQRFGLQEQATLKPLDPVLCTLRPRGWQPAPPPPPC
row,SMILES,IC50 [nM]
1,"N#CC1(Cc2ccc(Cl)cc2C2CC2)CCN(C(=O)c2cccnc2-c2ccncn2)CC1 [Compound A231, 4-(4-chloro-2-cyclopropylbenzyl)-1-(2-(pyrimidin-4-yl)nicotinoyl)piperidine-4-carbonitrile]",< 100
2,"N#CC1(Cc2ccc(F)cc2)CCN(C(=O)c2cccnc2-n2cncn2)CC1 [Compound A74, 1-(2-(1H-1,2,4-triazol-1-yl)nicotinoyl)-4-(4-fluorobenzyl)piperidine-4-carbonitrile]",> 1000
3,"N#CC1(Cc2cccc(F)c2F)CCN(C(=O)c2cccnc2-c2ccncn2)CC1 [Compound A209, 4-(2,3-difluorobenzyl)-1-(2-(pyrimidin-4-yl)nicotinoyl)piperidine-4-carbonitrile]",< 100
4,"CS(=O)(=O)c1ccc(CC2(C#N)CCN(C(=O)c3cccnc3-c3ccncn3)CC2)cc1 [Compound A204, 4-(4-(methylsulfonyl)benzyl)-1-(2-(pyrimidin-4-yl)nicotinoyl)piperidine-4-carbonitrile]",100 to 1000
5,"N#CC1(Cc2cc(F)cc(F)c2)CCN(C(=O)c2cccnc2-c2ccncc2)CC1 [Compound A70, 1-([2,4′-bipyridine]-3-carbonyl)-4-(3,5-difluorobenzyl)piperidine-4-carbonitrile]",< 100
6,"C[C@@H](c1ccc(F)cc1)C1(C#N)CCN(C(=O)c2cccnc2-c2ccncn2)CC1 [Compound A44, (S)-4-(1-(4-fluorophenyl)ethyl)-1-(2-(pyrimidin-4-yl)nicotinoyl)piperidine-4-carbonitrile]",< 100
7,"N#CC1(Cc2ccc(C(F)(F)F)cc2)CCN(C(=O)c2cccnc2-c2ccncc2)CC1 [Compound A285, 1-([2,4′-bipyridine]-3-carbonyl)-4-(4-(trifluoromethyl)benzyl)piperidine-4-carbonitrile]",< 100
8,"C[C@@H](c1ccc(C(F)(F)F)cc1F)C1(C#N)CCN(C(=O)c2cccnc2-c2ccncn2)CC1 [Compound A286, (R)-4-(1-(2-fluoro-4-(trifluoromethyl)phenyl)ethyl)-1-(2-(pyrimidin-4-yl)nicotinoyl)piperidine-4-carbonitrile]",< 100
9,"N#CC1(Cc2cnc(C(F)(F)F)nc2)CCN(C(=O)c2cccnc2-c2ccncn2)CC1 [Compound A239, 1-(2-(pyrimidin-4-yl)nicotinoyl)-4-((2-(trifluoromethyl)pyrimidin-5-yl)methyl)piperidine-4-carbonitrile]",> 1000
10,"N#CC1(CCc2ccccc2)CCN(C(=O)c2cccnc2-c2ccncc2)CC1 [Compound A68, 1-([2,4′-bipyridine]-3-carbonyl)-4-phenethylpiperidine-4-carbonitrile]",100 to 1000
11,"N#CC1(Cc2ccc(F)cc2)CCN(C(=O)c2cc(C3CC3)ccc2-c2ccncn2)CC1 [Compound A254, 1-(5-cyclopropyl-2-(pyrimidin-4-yl)benzoyl)-4-(4-fluorobenzyl)piperidine-4-carbonitrile]",< 100
12,"N#CC1(CC2CC(F)(F)C2)CCN(C(=O)c2cccnc2-c2ccncn2)CC1 [Compound A54, 4-((3,3-difluorocyclobutyl)methyl)-1-(2-(pyrimidin-4-yl)nicotinoyl)piperidine-4-carbonitrile]",100 to 1000
13,"N#CC1(Cc2c(F)cc(F)cc2F)CCN(C(=O)c2cccnc2-c2ccncn2)CC1 [Compound A263, 1-(2-(pyrimidin-4-yl)nicotinoyl)-4-(2,4,6-trifluorobenzyl)piperidine-4-carbonitrile]",< 100
14,"N#CC1(Cc2ccc(F)cc2)CCN(C(=O)c2cccnc2-c2ccnnc2)CC1 [Compound A200, 4-(4-fluorobenzyl)-1-(2-(pyridazin-4-yl)nicotinoyl)piperidine-4-carbonitrile]",> 1000
15,"C[C@H](c1c(F)cccc1F)C1(C#N)CCN(C(=O)c2cccnc2-c2ccncn2)CC1 [Compound A243, (S)-4-(1-(2,6-difluorophenyl)ethyl)-1-(2-(pyrimidin-4-yl)nicotinoyl)piperidine-4-carbonitrile]",< 100
16,"N#CC1(Cc2cccc(C(F)(F)F)c2)CCN(C(=O)c2cccnc2-c2ccncc2)CC1 [Compound A279, 1-([2,4′-bipyridine]-3-carbonyl)-4-(3-(trifluoromethyl)benzyl)piperidine-4-carbonitrile]",< 100
17,"N#CC1(Cc2ccc(F)cc2)CCN(C(=O)c2cccnc2-n2ccnc2)CC1 [Compound A16, 1-(2-(1H-imidazol-1-yl)nicotinoyl)-4-(4-fluorobenzyl)piperidine-4-carbonitrile]",> 1000
18,"CC(c1c(F)cc(F)cc1F)C1(C#N)CCN(C(=O)c2cccnc2-c2ccncn2)CC1 (stereo in doubt) [Compound A270, (S)-1-(2-(pyrimidin-4-yl)nicotinoyl)-4-(1-(2,4,6-trifluorophenyl)ethyl)piperidine-4-carbonitrile]",< 100

row,SMILES,IC50 [nM]
1,"N#CC1(Cc2ccc(F)c(C(F)(F)F)c2)CCN(C(=O)c2cccnc2-c2ccncc2)CC1 [Compound A278, 1-([2,4′-bipyridine]-3-carbonyl)-4-(4-fluoro-3-(trifluoromethyl)benzyl)piperidine-4-carbonitrile]",< 100
2,"COc1ccc(CC2(C#N)CCN(C(=O)c3cccnc3-c3ccncn3)CC2)cc1 [Compound A63, 4-(4-methoxybenzyl)-1-(2-(pyrimidin-4-yl)nicotinoyl)piperidine-4-carbonitrile]",< 100
3,"N#CC1(Cc2cccc3ccccc23)CCN(C(=O)c2cccnc2-c2ccncn2)CC1 [Compound A225, 4-(naphthalen-1-ylmethyl)-1-(2-(pyrimidin-4-yl)nicotinoyl)piperidine-4-carbonitrile]",< 100
4,"N#CC1(Cc2ccc(F)cc2F)CCN(C(=O)c2cccnc2-c2ccncn2)CC1 [Compound A51, 4-(2,4-difluorobenzyl)-1-(2-(pyrimidin-4-yl)nicotinoyl)piperidine-4-carbonitrile]",< 100
5,"N#CC1(Cc2ccc(C(F)(F)F)cc2F)CCN(C(=O)c2cccnc2-c2ccncc2)CC1 [Compound A255, 1-([2,4′-bipyridine]-3-carbonyl)-4-(2-fluoro-4-(trifluoromethyl)benzyl)piperidine-4-carbonitrile]",< 100
6,"N#CC1(Cc2c(F)cc(C(F)(F)F)cc2F)CCN(C(=O)c2cccnc2-c2ccncn2)CC1 [Compound A281, 4-(2,6-difluoro-4-(trifluoromethyl)benzyl)-1-(2-(pyrimidin-4-yl)nicotinoyl)piperidine-4-carbonitrile]",< 100
7,"N#CC1(Cc2ccc(Cl)cc2F)CCN(C(=O)c2cccnc2-c2ccncn2)CC1 [Compound A205, 4-(4-chloro-2-fluorobenzyl)-1-(2-(pyrimidin-4-yl)nicotinoyl)piperidine-4-carbonitrile]",< 100
8,"N#C[C@]1(Cc2ccc(F)cc2)[C@@H]2CC[C@H]1CN(C(=O)c1cccnc1-c1ccncn1)C2 [Compound A253, (1R,5S,8r)-8-(4-fluorobenzyl)-3-(2-(pyrimidin-4-yl)nicotinoyl)-3-azabicyclo[3.2.1]octane-8-carbonitrile]",> 1000
9,"N#CC1(Cc2ccc3ccccc3c2)CCN(C(=O)c2cccnc2-c2ccncn2)CC1 [Compound A224, 4-(naphthalen-2-ylmethyl)-1-(2-(pyrimidin-4-yl)nicotinoyl)piperidine-4-carbonitrile]",< 100
10,"C[C@@H](c1c(F)cccc1F)C1(C#N)CCN(C(=O)c2cccnc2-c2ccncc2)CC1 [Compound A246, (R)-1-([2,4′-bipyridine]-3-carbonyl)-4-(1-(2,6-difluorophenyl)ethyl)piperidine-4-carbonitrile]",< 100
11,"N#CC1(Cc2ccc(F)cc2)CCN(C(=O)c2cc(F)ccc2-c2ccncn2)CC1 [Compound A219, 1-(5-fluoro-2-(pyrimidin-4-yl)benzoyl)-4-(4-fluorobenzyl)piperidine-4-carbonitrile]",< 100
12,"N#CC1(Cc2cccc(C(F)(F)F)c2)CCN(C(=O)c2cccnc2-c2ccncn2)CC1 [Compound A264, 1-(2-(pyrimidin-4-yl)nicotinoyl)-4-(3-(trifluoromethyl)benzyl)piperidine-4-carbonitrile]",< 100
13,"N#CC1(Cc2ccc(F)cc2C(F)(F)F)CCN(C(=O)c2cccnc2-c2ccncn2)CC1 [Compound A276, 4-(4-fluoro-2-(trifluoromethyl)benzyl)-1-(2-(pyrimidin-4-yl)nicotinoyl)piperidine-4-carbonitrile]",100 to 1000
14,"N#CC1(Cc2ccc(OC(F)(F)F)cc2)CCN(C(=O)c2cccnc2-c2ccncn2)CC1 [Compound A217, 1-(2-(pyrimidin-4-yl)nicotinoyl)-4-(4-(trifluoromethoxy)benzyl)piperidine-4-carbonitrile]",< 100
15,"N#CC1(Cc2cc(F)ccc2F)CCN(C(=O)c2cccnc2-c2ccncn2)CC1 [Compound A261, 4-(2,5-difluorobenzyl)-1-(2-(pyrimidin-4-yl)nicotinoyl)piperidine-4-carbonitrile]",< 100
16,"CC(c1cc(F)cc(F)c1)C1(C#N)CCN(C(=O)c2cccnc2-c2ccncn2)CC1 (stereo in doubt) [Compound A258, (R)-4-(1-(3,5-difluorophenyl)ethyl)-1-(2-(pyrimidin-4-yl)nicotinoyl)piperidine-4-carbonitrile]",< 100
17,"N#CC1(Cc2cc(F)ccc2F)CCN(C(=O)c2cccnc2-c2ccncc2)CC1 [Compound A282, 1-([2,4′-bipyridine]-3-carbonyl)-4-(2,5-difluorobenzyl)piperidine-4-carbonitrile]",< 100
